Consider 95 compounds from ChEMBL document CHEMBL1147189, “QSAR analysis for heterocyclic antifungals” (2007).

The structures appear in SMILES notation. Values after ≈ are worked out from the molar mass of the structure shown.

What is called MIC is the smallest concentration in the dilution series that meets the test's criterion for growth inhibition.

The assay has as its system Candida albicans. Nature of the assay: Antifungal activity against Candida albicans by serial dilution method. The settings on record: read-out: -Log MIC (converted). Format: functional.
In the case of `Nc1ccc(-c2nc3ccccc3o2)cc1`, the MIC was 119 µM (≈ 25 µg/mL). For `c1ccc(CCc2nc3ccccc3[nH]2)cc1`, the MIC is 83.6 µM (≈ 18.6 µg/mL).

On to `Nc1ccc2oc(-c3ccc(F)cc3)nc2c1`, for which the MIC is 110 µM (≈ 25 µg/mL). As for `O=[N+]([O-])c1ccc2[nH]c(CSc3ccccc3)nc2c1`, the MIC was 43.9 µM (≈ 12.5 µg/mL). For `Cc1ccc2[nH]c(CSc3ccccc3)nc2c1` the value was 97.9 µM (≈ 24.9 µg/mL); for `Clc1ccc2oc(COc3ccccc3)nc2c1`, 45.3 µM (≈ 11.8 µg/mL). The value for `Cc1ccc2nc(CSc3ccccc3)oc2c1` was 97.9 µM (≈ 25 µg/mL); that for `COC(=O)c1ccc2[nH]c(COc3ccccc3)nc2c1` was 88.5 µM (≈ 25 µg/mL). The value for `O=[N+]([O-])c1ccc2[nH]c(COc3ccccc3)nc2c1` was 52.1 µM (≈ 14 µg/mL). As to `Clc1ccc2[nH]c(CSc3ccccc3)nc2c1`, the MIC is 91 µM (≈ 25 µg/mL). For `c1ccc(NCc2nc3ccccc3[nH]2)cc1`, the MIC was 112 µM (≈ 25 µg/mL).

On to `Clc1ccc(Cc2nc3ccccc3o2)cc1`, for which the MIC is 51.3 µM (≈ 12.5 µg/mL). For `O=[N+]([O-])c1ccc(Cc2nc3cc([N+](=O)[O-])ccc3o2)cc1` the value was 20.9 µM (≈ 6.25 µg/mL); for `Clc1ccc2[nH]c(COc3ccccc3)nc2c1`, 48.3 µM (≈ 12.5 µg/mL); for `Cc1ccc2[nH]c(CNc3ccccc3)nc2c1`, 105 µM (≈ 25 µg/mL). For `CC(=O)Nc1ccc(-c2nc3cc(C)ccc3o2)cc1` the value was 94 µM (≈ 25 µg/mL); for `COC(=O)c1ccc2[nH]c(CSc3ccccc3)nc2c1`, 83.9 µM (≈ 25 µg/mL); for `O=[N+]([O-])c1ccc2oc(CCc3ccccc3)nc2c1`, 46.7 µM (≈ 12.5 µg/mL). For `Nc1ccc(-c2nc3ncccc3o2)cc1` the value was 59.3 µM (≈ 12.5 µg/mL); for `CC(C)(C)c1ccc(-c2nc3ccccc3o2)cc1`, 99.8 µM (≈ 25.1 µg/mL); for `CC(=O)Nc1ccc(-c2nc3cc(Cl)ccc3o2)cc1`, 87.3 µM (≈ 25 µg/mL). As for `CCc1ccc(-c2nc3cc(Cl)ccc3o2)cc1`, the MIC is 97.1 µM (≈ 25 µg/mL). Regarding `Cc1ccc2nc(COc3ccccc3)oc2c1`, the MIC is 104 µM (≈ 25 µg/mL). The value for `O=[N+]([O-])c1ccc2oc(COc3ccc(Cl)cc3)nc2c1` was 82 µM (≈ 25 µg/mL); that for `O=[N+]([O-])c1cc2oc(CSc3ccccc3)nc2cc1Cl` was 39 µM (≈ 12.5 µg/mL). The value for `COC(=O)c1ccc2oc(CSc3ccccc3)nc2c1` was 41.8 µM (≈ 12.5 µg/mL); that for `Cc1ccc2oc(-c3ccc(N(C)C)cc3)nc2c1` was 99.1 µM (≈ 25 µg/mL); that for `Cc1ccc(-c2nc3ncccc3o2)cc1` was 59.6 µM (≈ 12.5 µg/mL). The value for `Clc1ccc(-c2nc3cc(Cl)ccc3o2)cc1` was 94.6 µM (≈ 25 µg/mL); that for `O=[N+]([O-])c1ccc(-c2nc3cc(Cl)ccc3o2)cc1` was 91.2 µM (≈ 25 µg/mL). For the compound `Cc1ccc(-c2nc3cc([N+](=O)[O-])ccc3o2)cc1`, the MIC was 49.2 µM (≈ 12.5 µg/mL). For `CC(C)(C)c1ccc(-c2nc3cc([N+](=O)[O-])ccc3o2)cc1` the value was 42.2 µM (≈ 12.5 µg/mL); for `CNc1ccc(-c2nc3cc(Cl)ccc3o2)cc1`, 94.4 µM (≈ 24.4 µg/mL); for `O=[N+]([O-])c1cc2oc(COc3ccc(Cl)cc3)nc2cc1Cl`, 148 µM (≈ 50 µg/mL). For `O=[N+]([O-])c1ccc2oc(CSc3ccccc3)nc2c1` the value was 43.8 µM (≈ 12.5 µg/mL); for `Clc1ccc(OCc2nc3cc(Cl)ccc3o2)cc1`, 84.9 µM (≈ 25 µg/mL); for `Clc1ccc(OCc2nc3ccccc3s2)cc1`, 181 µM (≈ 49.9 µg/mL). The value for `COc1ccc(-c2nc3ncccc3o2)cc1` was 55.3 µM (≈ 12.5 µg/mL). In the case of `CCOc1ccc(-c2nc3ncccc3o2)cc1`, the minimal inhibitory concentration (MIC) was 52.1 µM (≈ 12.5 µg/mL).

For the compound `O=[N+]([O-])c1ccc(Cc2nc3ccccc3o2)cc1`, the MIC was 49.2 µM (≈ 12.5 µg/mL). For `Clc1ccc2oc(Cc3ccccc3)nc2c1` the value was 51.3 µM (≈ 12.5 µg/mL). The value for `Nc1ccc(-c2nc3cc([N+](=O)[O-])ccc3o2)cc1` was 49 µM (≈ 12.5 µg/mL); that for `c1ccc(Cc2nc3ccccc3o2)cc1` was 59.8 µM (≈ 12.5 µg/mL). The value for `Cc1ccc2nc(COc3ccc(Cl)cc3)oc2c1` was 183 µM (≈ 50 µg/mL); that for `O=[N+]([O-])c1ccc(-c2nc3ncccc3o2)cc1` was 51.9 µM (≈ 12.5 µg/mL). As to `COc1ccc(Cc2nc3cc(Cl)ccc3o2)cc1`, the MIC is 45.7 µM (≈ 12.5 µg/mL). As for `Clc1ccc2oc(Cc3ccc(Br)cc3)nc2c1`, the MIC is 38.9 µM (≈ 12.6 µg/mL). As to `O=[N+]([O-])c1ccc2oc(Cc3ccc(Cl)cc3)nc2c1`, the MIC is 21.7 µM (≈ 6.26 µg/mL). The value for `CCc1ccc(-c2nc3cc(N)ccc3o2)cc1` was 105 µM (≈ 25 µg/mL); that for `CN(C)c1ccc(-c2nc3cc(N)ccc3o2)cc1` was 98.9 µM (≈ 25 µg/mL); that for `Cc1ccc(-c2nc3cc(C)ccc3o2)cc1` was 112 µM (≈ 25.1 µg/mL). `CCc1ccc(-c2nc3cc(C)ccc3o2)cc1`: the MIC was 105 µM (≈ 25 µg/mL). With `COc1ccc(-c2nc3cc(C)ccc3o2)cc1`, the MIC is 105 µM (≈ 25.1 µg/mL). `Cc1ccc2oc(COc3ccccc3)nc2c1`: the MIC was 105 µM (≈ 25.1 µg/mL). For `c1ccc(OCc2nc3ncccc3o2)cc1` the value was 55 µM (≈ 12.4 µg/mL); for `Clc1ccc(OCc2nc3ncccc3o2)cc1`, 48 µM (≈ 12.5 µg/mL); for `c1ccc(CCc2nc3ncccc3o2)cc1`, 55.8 µM (≈ 12.5 µg/mL).

Take `Clc1ccc(OCc2nc3ccccc3o2)cc1`: the MIC was 96.4 µM (≈ 25 µg/mL). `O=[N+]([O-])c1ccc2nc(COc3ccc(Cl)cc3)oc2c1`: the minimum inhibitory concentration (MIC) was 164 µM (≈ 50 µg/mL). The value for `c1ccc(SCc2nc3ccccc3[nH]2)cc1` was 52 µM (≈ 12.5 µg/mL); that for `Cc1ccc2[nH]c(CCc3ccccc3)nc2c1` was 52.8 µM (≈ 12.5 µg/mL). For `Cc1ccc2oc(-c3ccc(F)cc3)nc2c1` the value was 110 µM (≈ 25 µg/mL).

`Clc1ccc(OCc2nc3ccccc3[nH]2)cc1`: the MIC is 96.6 µM (≈ 25 µg/mL).

For the compound `CCc1ccc(-c2nc3ncccc3o2)cc1`, the MIC is 55.8 µM (≈ 12.5 µg/mL). The value for `O=[N+]([O-])c1ccc2oc(-c3ccccc3)nc2c1` was 52.2 µM (≈ 12.5 µg/mL); that for `COc1ccc(Cc2nc3ccccc3o2)cc1` was 52.2 µM (≈ 12.5 µg/mL).

On to `O=[N+]([O-])c1ccc2oc(Cc3ccc(Br)cc3)nc2c1`, for which the MIC is 18.8 µM (≈ 6.28 µg/mL). For the compound `O=[N+]([O-])c1ccc2oc(-c3ccc(Cl)cc3)nc2c1`, the MIC was 45.5 µM (≈ 12.5 µg/mL).

Regarding `Cc1ccc2oc(COc3ccc(Cl)cc3)nc2c1`, the MIC was 183 µM (≈ 50 µg/mL). For `Cc1ccc2[nH]c(COc3ccccc3)nc2c1`, the minimum inhibitory concentration (MIC) is 105 µM (≈ 25 µg/mL). The value for `O=[N+]([O-])c1ccc2oc(-c3ccc(Br)cc3)nc2c1` was 39.3 µM (≈ 12.5 µg/mL). `O=[N+]([O-])c1ccc(Cc2nc3cc(Cl)ccc3o2)cc1`: the MIC was 43.4 µM (≈ 12.5 µg/mL).

On to `COc1ccc(Cc2nc3cc([N+](=O)[O-])ccc3o2)cc1`, for which the MIC is 22 µM (≈ 6.26 µg/mL). Take `COC(=O)c1ccc2oc(COc3ccccc3)nc2c1`: the minimal inhibitory concentration (MIC) was 88.3 µM (≈ 25 µg/mL). The value for `c1ccc(OCc2nc3ccccc3o2)cc1` was 111 µM (≈ 25 µg/mL); that for `O=[N+]([O-])c1ccc2oc(COc3ccccc3)nc2c1` was 92.5 µM (≈ 25 µg/mL).

Regarding `O=[N+]([O-])c1ccc2nc(COc3ccccc3)oc2c1`, the MIC is 185 µM (≈ 50.1 µg/mL). The value for `O=[N+]([O-])c1ccc2nc(CSc3ccccc3)oc2c1` was 43.7 µM (≈ 12.5 µg/mL); that for `CNc1ccc(-c2nc3cc(C)ccc3o2)cc1` was 105 µM (≈ 25 µg/mL).

Consider `COC(=O)c1ccc2[nH]c(COc3ccc(Cl)cc3)nc2c1`, for which the minimum inhibitory concentration (MIC) was 79.1 µM (≈ 25 µg/mL). The value for `Clc1ccc(OCc2nc3cc(Cl)ccc3[nH]2)cc1` was 42.7 µM (≈ 12.5 µg/mL); that for `Clc1ccc2[nH]c(CCc3ccccc3)nc2c1` was 97.3 µM (≈ 25 µg/mL); that for `CNc1ccc(-c2nc3ccccc3o2)cc1` was 112 µM (≈ 25 µg/mL).

With `Nc1ccc2oc(-c3ccc(Br)cc3)nc2c1`, the minimum inhibitory concentration (MIC) is 77.6 µM (≈ 22.4 µg/mL). The value for `Cc1ccc2oc(CSc3ccccc3)nc2c1` was 97.9 µM (≈ 25 µg/mL). For `Cc1ccc2[nH]c(COc3ccc(Cl)cc3)nc2c1` the value was 91.8 µM (≈ 25 µg/mL); for `Brc1ccc(Cc2nc3ccccc3o2)cc1`, 43.7 µM (≈ 12.6 µg/mL). The value for `O=[N+]([O-])c1cc2oc(COc3ccccc3)nc2cc1Cl` was 164 µM (≈ 50 µg/mL); that for `c1ccc(SCc2nc3ccccc3o2)cc1` was 51.8 µM (≈ 12.5 µg/mL); that for `c1ccc(OCc2nc3ccccc3[nH]2)cc1` was 111 µM (≈ 25 µg/mL). For `COC(=O)c1ccc2oc(COc3ccc(Cl)cc3)nc2c1`, the MIC was 78.7 µM (≈ 25 µg/mL).

In the case of `O=[N+]([O-])c1ccc2oc(Cc3ccccc3)nc2c1`, the MIC was 24.6 µM (≈ 6.26 µg/mL). For `c1ccc(OCc2nc3ccccc3s2)cc1` [2-(PHENOXYMETHYL)BENZOTHIAZOLE] the value was 207 µM (≈ 50 µg/mL); for `c1ccc(SCc2nc3ccccc3s2)cc1` [2-(PHENYLTHIOMETHYL)BENZO[D]THIAZOLE], 97.1 µM (≈ 25 µg/mL).

For the compound `c1ccc(-c2nc3ccccc3o2)cc1` [2-PHENYLBENZO[D]OXAZOLE], the minimal inhibitory concentration (MIC) is 128 µM (≈ 25 µg/mL).
